We go through four compounds from PMC7827406, “Structure–Activity Relationship (SAR) Study of Spautin-1 to Entail the Discovery of Novel NEK4 Inhibitors” (International Journal of Molecular Sciences, 2021).

Like-named read-outs stand apart in the source and are kept apart here.

Holding throughout (experiment): biochemical
Common to all, as to parameters: Eurofins KinaseProfiler full panel at Km ATP, residual kinase activity (%) relative to DMSO

One assay has as its target T1, ULK2(h) (Homo sapiens, UniProt Q8IYT8).
T1 sequence (Q8IYT8 1-1036): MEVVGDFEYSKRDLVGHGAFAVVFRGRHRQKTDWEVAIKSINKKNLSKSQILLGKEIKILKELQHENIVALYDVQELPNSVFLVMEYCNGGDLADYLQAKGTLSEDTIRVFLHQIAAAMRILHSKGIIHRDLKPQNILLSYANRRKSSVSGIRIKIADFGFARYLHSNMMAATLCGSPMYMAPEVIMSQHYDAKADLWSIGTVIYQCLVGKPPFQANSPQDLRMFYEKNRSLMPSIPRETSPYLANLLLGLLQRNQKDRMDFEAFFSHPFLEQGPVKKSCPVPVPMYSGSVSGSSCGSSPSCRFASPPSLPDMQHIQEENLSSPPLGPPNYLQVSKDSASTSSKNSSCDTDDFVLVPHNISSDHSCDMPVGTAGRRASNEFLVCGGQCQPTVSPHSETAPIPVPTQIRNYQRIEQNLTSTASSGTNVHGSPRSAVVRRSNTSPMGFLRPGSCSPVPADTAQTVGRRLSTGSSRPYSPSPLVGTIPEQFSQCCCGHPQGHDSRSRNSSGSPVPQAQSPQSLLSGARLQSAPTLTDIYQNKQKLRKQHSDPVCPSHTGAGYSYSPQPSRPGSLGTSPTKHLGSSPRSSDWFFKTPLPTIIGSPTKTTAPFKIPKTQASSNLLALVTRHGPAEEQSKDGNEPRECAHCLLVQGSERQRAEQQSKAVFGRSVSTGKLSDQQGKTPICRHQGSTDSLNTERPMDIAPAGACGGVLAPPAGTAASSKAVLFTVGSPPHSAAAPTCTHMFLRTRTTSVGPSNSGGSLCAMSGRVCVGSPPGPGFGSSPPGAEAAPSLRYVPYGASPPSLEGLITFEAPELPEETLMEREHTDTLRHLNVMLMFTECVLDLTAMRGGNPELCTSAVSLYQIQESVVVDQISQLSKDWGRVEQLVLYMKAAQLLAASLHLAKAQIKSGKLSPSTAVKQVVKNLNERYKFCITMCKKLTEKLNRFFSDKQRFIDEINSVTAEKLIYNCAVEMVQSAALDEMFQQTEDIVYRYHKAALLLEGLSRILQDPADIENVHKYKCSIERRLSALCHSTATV
The method in brief:
(§1)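 Radiometric kinase activity assays were run with ATP at Km and compounds at 10 µM, and remaining activity (%) was reported. A separate competitive binding screen measured DNA-tagged kinase displaced from immobilized active-site ligands by qPCR, giving percent kinase still bound at 10 µM compound in DMSO.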

The target of a further assay is TTBK1(h) (Homo sapiens, UniProt Q5TCY1). The method in brief:
as §1

The next assay addresses T2, NEK2(h) (Homo sapiens, UniProt P51955).
T2 sequence (P51955 1-445): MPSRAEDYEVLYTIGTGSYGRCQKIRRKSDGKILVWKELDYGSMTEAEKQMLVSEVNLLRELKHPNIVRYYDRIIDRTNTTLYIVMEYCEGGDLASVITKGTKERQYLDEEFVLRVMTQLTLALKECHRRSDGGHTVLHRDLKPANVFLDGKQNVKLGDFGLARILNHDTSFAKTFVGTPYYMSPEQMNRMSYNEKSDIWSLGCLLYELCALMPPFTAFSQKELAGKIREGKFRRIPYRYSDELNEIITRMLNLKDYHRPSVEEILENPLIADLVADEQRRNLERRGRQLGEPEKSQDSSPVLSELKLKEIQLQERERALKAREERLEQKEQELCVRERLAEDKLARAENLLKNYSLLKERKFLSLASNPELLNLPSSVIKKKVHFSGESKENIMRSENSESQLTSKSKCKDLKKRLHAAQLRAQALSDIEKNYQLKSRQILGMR
The method, boiled down: as §1

For a further assay, the target named is T3, PKCδ(h) (Homo sapiens, UniProt Q05655).
T3 construct: gene PRKCD
The method, boiled down: as §1

A further assay deals with CDK13/cyclinK(h) (Homo sapiens, UniProt Q14004). The method, boiled down:
as §1

The next assay deals with T4, MKK4(m) (Mus musculus, UniProt P47809).
T4 construct: gene Map2k4
T4 sequence (P47809 1-397): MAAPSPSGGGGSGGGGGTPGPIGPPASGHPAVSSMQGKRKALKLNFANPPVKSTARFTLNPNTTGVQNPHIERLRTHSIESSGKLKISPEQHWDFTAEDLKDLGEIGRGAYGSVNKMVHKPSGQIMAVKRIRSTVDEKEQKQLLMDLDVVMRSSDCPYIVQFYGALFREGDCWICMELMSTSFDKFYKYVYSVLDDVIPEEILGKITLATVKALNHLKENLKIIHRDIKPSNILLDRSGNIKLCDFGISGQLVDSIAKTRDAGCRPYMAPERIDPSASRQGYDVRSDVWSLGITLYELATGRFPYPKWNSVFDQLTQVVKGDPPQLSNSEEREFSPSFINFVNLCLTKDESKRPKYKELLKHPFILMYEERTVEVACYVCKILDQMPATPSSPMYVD
The method in brief:
as §1

The next assay has as its target T5, PDGFRα(V561D)(h) (Homo sapiens, UniProt P16234, V561D).
T5 construct: gene PDGFRA
The method, boiled down:
as §1

[1] abbreviates: read-out: Residual activity (%) 5at.
The mark [2] stands for this setting: read-out: Residual activity (%) 5ay.
The mark [3] stands for this setting: read-out: Residual activity (%) 5as.
The mark [4] stands for this setting: read-out: Residual activity (%) Spautin-1 5aa.

Sequence of CDK13/cyclinK(h) (Q14004 whole entry): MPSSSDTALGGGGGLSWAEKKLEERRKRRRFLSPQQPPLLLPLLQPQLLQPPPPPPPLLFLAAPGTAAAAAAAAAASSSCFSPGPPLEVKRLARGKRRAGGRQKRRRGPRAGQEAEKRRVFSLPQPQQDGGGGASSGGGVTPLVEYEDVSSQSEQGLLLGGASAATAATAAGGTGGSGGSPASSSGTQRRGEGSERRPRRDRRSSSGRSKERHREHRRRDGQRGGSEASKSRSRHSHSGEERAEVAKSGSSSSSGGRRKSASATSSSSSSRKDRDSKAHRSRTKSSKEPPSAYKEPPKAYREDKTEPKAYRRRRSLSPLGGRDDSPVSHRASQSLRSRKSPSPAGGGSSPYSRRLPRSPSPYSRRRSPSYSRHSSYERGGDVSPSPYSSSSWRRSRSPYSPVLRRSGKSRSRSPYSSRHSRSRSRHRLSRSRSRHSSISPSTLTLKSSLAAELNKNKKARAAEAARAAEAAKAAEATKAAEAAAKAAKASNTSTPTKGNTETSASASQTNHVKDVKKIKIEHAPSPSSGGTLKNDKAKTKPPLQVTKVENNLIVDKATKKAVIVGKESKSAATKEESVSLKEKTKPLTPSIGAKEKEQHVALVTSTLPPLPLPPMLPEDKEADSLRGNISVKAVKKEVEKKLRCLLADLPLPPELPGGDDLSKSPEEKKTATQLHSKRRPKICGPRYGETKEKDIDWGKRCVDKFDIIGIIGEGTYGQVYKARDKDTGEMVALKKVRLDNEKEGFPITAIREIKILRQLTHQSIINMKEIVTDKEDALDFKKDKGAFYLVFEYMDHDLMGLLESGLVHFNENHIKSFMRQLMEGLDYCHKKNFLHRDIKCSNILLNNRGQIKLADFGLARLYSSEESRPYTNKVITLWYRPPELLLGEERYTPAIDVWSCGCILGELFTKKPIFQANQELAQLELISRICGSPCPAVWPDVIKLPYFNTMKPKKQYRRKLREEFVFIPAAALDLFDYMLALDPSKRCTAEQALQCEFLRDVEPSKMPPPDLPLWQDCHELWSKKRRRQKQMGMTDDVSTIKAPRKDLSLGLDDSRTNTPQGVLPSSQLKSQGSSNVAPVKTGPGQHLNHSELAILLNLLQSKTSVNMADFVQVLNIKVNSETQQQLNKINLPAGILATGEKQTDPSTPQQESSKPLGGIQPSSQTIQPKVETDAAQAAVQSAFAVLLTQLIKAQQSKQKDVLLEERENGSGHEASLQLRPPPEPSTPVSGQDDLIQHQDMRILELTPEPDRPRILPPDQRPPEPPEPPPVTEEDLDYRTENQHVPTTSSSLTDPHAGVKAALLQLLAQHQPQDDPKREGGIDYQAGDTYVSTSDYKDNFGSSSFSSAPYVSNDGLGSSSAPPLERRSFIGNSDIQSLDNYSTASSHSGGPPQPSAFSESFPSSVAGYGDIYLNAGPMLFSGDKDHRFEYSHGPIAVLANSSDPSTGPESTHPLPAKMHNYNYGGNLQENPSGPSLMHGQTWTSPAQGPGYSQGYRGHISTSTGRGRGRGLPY
Sequence of CDK13/cyclinK(h) (O75909 whole entry partner): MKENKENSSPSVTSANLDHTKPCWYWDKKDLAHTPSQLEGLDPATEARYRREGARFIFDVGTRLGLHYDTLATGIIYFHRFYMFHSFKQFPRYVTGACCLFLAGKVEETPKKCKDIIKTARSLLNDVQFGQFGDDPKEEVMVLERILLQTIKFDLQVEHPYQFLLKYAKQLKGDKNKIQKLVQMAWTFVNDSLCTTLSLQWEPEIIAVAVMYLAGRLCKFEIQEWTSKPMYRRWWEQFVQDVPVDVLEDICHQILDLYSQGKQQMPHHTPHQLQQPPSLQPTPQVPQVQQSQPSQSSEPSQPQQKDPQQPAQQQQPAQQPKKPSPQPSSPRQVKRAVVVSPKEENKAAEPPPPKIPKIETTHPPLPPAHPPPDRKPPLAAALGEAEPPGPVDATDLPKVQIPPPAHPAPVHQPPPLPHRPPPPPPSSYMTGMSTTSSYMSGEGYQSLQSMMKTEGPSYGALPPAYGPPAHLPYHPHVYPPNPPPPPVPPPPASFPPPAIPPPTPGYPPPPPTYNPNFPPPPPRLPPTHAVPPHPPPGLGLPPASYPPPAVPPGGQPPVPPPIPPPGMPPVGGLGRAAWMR
T5 sequence (P16234 whole entry V561D): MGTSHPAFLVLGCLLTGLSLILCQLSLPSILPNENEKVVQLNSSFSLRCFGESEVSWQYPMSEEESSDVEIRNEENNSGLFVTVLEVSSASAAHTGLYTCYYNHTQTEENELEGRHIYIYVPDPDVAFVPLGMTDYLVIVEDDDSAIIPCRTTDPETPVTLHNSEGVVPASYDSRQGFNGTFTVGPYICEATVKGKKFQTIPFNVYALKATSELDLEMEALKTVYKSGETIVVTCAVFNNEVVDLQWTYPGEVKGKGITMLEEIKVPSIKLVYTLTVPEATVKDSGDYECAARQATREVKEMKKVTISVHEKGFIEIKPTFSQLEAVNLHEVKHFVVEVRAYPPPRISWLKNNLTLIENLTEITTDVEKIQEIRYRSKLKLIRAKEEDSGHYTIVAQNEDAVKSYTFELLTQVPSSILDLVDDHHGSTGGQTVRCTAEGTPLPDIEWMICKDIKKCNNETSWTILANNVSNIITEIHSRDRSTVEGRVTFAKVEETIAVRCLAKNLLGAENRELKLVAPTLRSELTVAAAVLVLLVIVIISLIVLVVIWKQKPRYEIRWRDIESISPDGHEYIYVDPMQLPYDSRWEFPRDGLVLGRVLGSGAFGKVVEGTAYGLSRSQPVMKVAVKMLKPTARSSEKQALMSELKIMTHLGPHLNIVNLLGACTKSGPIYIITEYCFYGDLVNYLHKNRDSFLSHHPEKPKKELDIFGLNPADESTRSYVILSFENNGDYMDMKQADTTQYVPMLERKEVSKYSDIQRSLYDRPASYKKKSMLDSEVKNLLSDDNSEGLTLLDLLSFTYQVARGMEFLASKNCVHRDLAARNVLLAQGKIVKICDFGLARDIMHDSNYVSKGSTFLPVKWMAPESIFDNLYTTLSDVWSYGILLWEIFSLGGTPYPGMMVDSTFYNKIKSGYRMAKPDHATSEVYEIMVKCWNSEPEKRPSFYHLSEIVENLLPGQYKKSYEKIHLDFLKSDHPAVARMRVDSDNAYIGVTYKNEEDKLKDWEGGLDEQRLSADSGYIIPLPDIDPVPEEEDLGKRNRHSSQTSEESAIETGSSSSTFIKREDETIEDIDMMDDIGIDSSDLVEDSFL
T3 sequence (Q05655 whole entry): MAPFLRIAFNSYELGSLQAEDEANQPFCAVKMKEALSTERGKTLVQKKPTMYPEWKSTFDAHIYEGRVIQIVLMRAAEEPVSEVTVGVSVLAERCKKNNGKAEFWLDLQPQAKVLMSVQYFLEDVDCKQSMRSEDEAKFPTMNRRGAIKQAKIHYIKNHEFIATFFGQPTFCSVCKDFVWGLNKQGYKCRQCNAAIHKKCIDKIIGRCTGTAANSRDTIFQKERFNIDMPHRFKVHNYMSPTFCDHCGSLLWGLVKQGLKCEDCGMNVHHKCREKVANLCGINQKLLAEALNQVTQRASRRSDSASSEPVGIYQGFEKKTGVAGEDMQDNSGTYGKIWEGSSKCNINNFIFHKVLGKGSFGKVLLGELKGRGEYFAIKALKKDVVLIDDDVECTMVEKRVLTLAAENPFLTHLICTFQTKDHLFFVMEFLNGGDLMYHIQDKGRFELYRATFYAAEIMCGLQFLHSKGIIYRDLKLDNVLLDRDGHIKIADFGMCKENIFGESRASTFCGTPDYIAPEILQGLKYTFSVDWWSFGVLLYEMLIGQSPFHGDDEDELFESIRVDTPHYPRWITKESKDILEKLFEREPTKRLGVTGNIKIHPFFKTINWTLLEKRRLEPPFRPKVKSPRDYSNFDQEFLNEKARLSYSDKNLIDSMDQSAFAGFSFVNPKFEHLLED

`Fc1ccc2ncnc(NCCc3ccc(Cl)cc3)c2c1` [5at, N-[2-(4-Chlorophenyl)Ethyl]-6-Fluoro-4-Quinazolinamine]: the remaining activity at 10 µM at ULK2(h) (setting [1]) is 94%; at TTBK1(h) (setting [1]), 114%; at NEK2(h) (setting [1]), 95%; at PKCδ(h) (setting [1]), 88%; at CDK13/cyclinK(h) (setting [1]), 114%; on MKK4(m) (setting [1]) it was 118%. Further, the remaining activity at 10 µM at PDGFRα(V561D)(h) (setting [1]) came to 90%.

Consider `COc1ccc2ncnc(Nc3cccc(F)c3)c2c1` [5ay, N-(3-Fluorophenyl)-6-Methoxy-4-Quinazolinamine], for which the remaining activity at 10 µM at ULK2(h) (setting [2]) came to 97%; on TTBK1(h) (setting [2]) it was 112%; on NEK2(h) (setting [2]), 92%; on PKCδ(h) (setting [2]) it was 75%; on CDK13/cyclinK(h) (setting [2]), 105%; at MKK4(m) (setting [2]), 110%. The remaining activity at 10 µM at PDGFRα(V561D)(h) (setting [2]) turned out to be 98%.

Regarding `Fc1ccc(CCNc2ncnc3ccc(F)cc23)cc1` [5as, 6-Fluoro-N-[2-(4-Fluorophenyl)Ethyl]-4-Quinazolinamine], the remaining activity at 10 µM on ULK2(h) (setting [3]) amounted to 93%; on TTBK1(h) (setting [3]), 104%; on NEK2(h) (setting [3]), 88%; on PKCδ(h) (setting [3]), 97%; on CDK13/cyclinK(h) (setting [3]), 35%; on MKK4(m) (setting [3]), 112%. On PDGFRα(V561D)(h) (setting [3]), the remaining activity at 10 µM turned out to be 92%.

As for `Fc1ccc(CNc2ncnc3ccc(F)cc23)cc1` [5aa, 6-Fluoro-N-(4-fluorobenzyl)-4-Quinazolinamine], the remaining activity at 10 µM was 101% at ULK2(h) (setting [4]); 119% at TTBK1(h) (setting [4]); 91% on NEK2(h) (setting [4]); 81% on PKCδ(h) (setting [4]); 75% at CDK13/cyclinK(h) (setting [4]); 105% on MKK4(m) (setting [4]). For the same compound, at PDGFRα(V561D)(h) (setting [4]), the remaining activity at 10 µM was 86%.
